Test results taken from a compilation of properties of binary mixtures (doi:10.7498/aps.66.196101).

Assay: xn = mol fraction of the nth substance listed
Conditions: 100 kPa

CCCCCC[n+]1ccccc1.N#C[N-]C#N + O
Conditions	electrical conductivity, x1 = 0.9076 [S/m]	electrical conductivity, x1 = 0.9239 [S/m]	electrical conductivity, x1 = 0.9408 [S/m]	electrical conductivity, x1 = 0.9582 [S/m]	electrical conductivity, x1 = 0.9762 [S/m]	viscosity, x1 = 0.9152 [mPa·s]	viscosity, x1 = 0.9306 [mPa·s]	viscosity, x1 = 0.9488 [mPa·s]	viscosity, x1 = 0.9665 [mPa·s]	viscosity, x2 = 0.0151 [mPa·s]
298.15 K	0.554	0.532	0.512	–	–	49.3	–	51.8	53.7	–
303.15 K	0.682	0.66	0.642	0.615	0.588	39.19	40.28	41.67	–	45.48
308.15 K	0.817	–	0.769	0.739	0.711	32.18	33.01	34.12	35.44	37.16
313.15 K	0.997	0.958	0.927	0.889	0.839	26.76	27.39	28.15	29.09	30.51
318.15 K	1.17	1.12	–	1.05	1	–	23.12	23.8	–	25.35
323.15 K	1.34	1.29	1.26	1.22	1.17	18.75	19.06	19.48	20.12	21.03
328.15 K	1.52	–	1.42	1.39	–	–	16.38	–	17.36	18.12
333.15 K	1.73	1.68	1.64	1.59	1.55	13.84	14.07	14.44	14.95	15.67
338.15 K	–	1.9	–	1.8	1.75	–	12.38	12.75	13.17	–

CCCC[n+]1ccccc1.N#C[N-]C#N + O
Conditions	electrical conductivity, x1 = 0.9189 [S/m]	electrical conductivity, x1 = 0.9335 [S/m]	electrical conductivity, x1 = 0.9486 [S/m]	electrical conductivity, x1 = 0.9642 [S/m]	electrical conductivity, x2 = 0.0198 [S/m]	viscosity, x1 = 0.9257 [mPa·s]	viscosity, x1 = 0.9415 [mPa·s]	viscosity, x1 = 0.9569 [mPa·s]	viscosity, x1 = 0.9726 [mPa·s]	viscosity, x2 = 0.0111 [mPa·s]
298.15 K	1.03	0.997	0.968	–	0.903	28.23	29.04	–	31.13	32.25
303.15 K	–	–	–	1.08	1.06	23.59	24.03	–	25.61	26.58
308.15 K	1.41	1.38	1.34	1.29	1.26	19.79	20.18	20.75	21.47	22.17
313.15 K	1.65	1.6	1.57	–	1.5	–	17.11	–	18.19	18.73
318.15 K	1.93	–	1.85	1.81	1.76	–	14.67	15	–	16.14
323.15 K	2.32	2.26	2.18	2.11	2.05	12.11	12.4	–	13.13	–
328.15 K	2.51	2.47	2.42	2.36	2.3	–	–	11.08	11.44	11.84
333.15 K	2.85	2.81	–	–	2.65	9.38	9.57	–	10.1	10.43
338.15 K	3.22	3.16	3.1	3.05	2.99	8.34	–	8.65	8.93	9.19

CCCC[n+]1ccn(C)c1.N[C@@H](CO)C(=O)[O-] + O
Conditions	electrical conductivity, x1 = 0.8285 [S/m]	electrical conductivity, x1 = 0.843 [S/m]	electrical conductivity, x1 = 0.8591 [S/m]	electrical conductivity, x1 = 0.8757 [S/m]	electrical conductivity, x1 = 0.8918 [S/m]	viscosity, x1 = 0.852 [mPa·s]	viscosity, x1 = 0.8736 [mPa·s]	viscosity, x1 = 0.894 [mPa·s]	viscosity, x1 = 0.9165 [mPa·s]	viscosity, x1 = 0.9388 [mPa·s]
298.15 K	0.0076	0.0071	0.0068	0.0065	–	5107	5135	–	–	5270
303.15 K	0.0118	0.0111	–	–	0.0097	2975	3000	–	3073	3147
308.15 K	0.0196	0.0183	0.017	0.016	0.0151	1828	1843	1868	1897	1952
313.15 K	0.0293	0.028	0.0261	0.0247	0.0237	1135	1159	–	1231	–
318.15 K	0.0423	0.0402	0.0375	0.0357	0.0341	753	768	790	822	870
323.15 K	0.0597	0.0565	0.0534	0.0511	0.0488	523	532	544	566	597
328.15 K	0.0817	–	–	0.0703	0.0679	–	352	–	388	–
333.15 K	–	0.106	–	0.0958	0.0921	247	255	266	279	304
338.15 K	0.146	0.14	–	0.127	0.122	–	187.4	197	212	229

CCCn1cc[n+](C)c1.N[C@@H](CO)C(=O)[O-] + O
Conditions	electrical conductivity, x1 = 0.8651 [S/m]	electrical conductivity, x1 = 0.881 [S/m]	electrical conductivity, x1 = 0.8954 [S/m]	electrical conductivity, x1 = 0.9112 [S/m]	electrical conductivity, x1 = 0.9275 [S/m]	viscosity, x1 = 0.878 [mPa·s]	viscosity, x1 = 0.8933 [mPa·s]	viscosity, x1 = 0.909 [mPa·s]	viscosity, x1 = 0.9253 [mPa·s]	viscosity, x1 = 0.9422 [mPa·s]
298.15 K	0.0244	0.0231	0.0219	0.0204	0.0191	–	2259	–	–	2495
303.15 K	0.0369	0.0356	0.0339	0.0321	0.0301	1399	1414	1439	1477	–
308.15 K	0.0559	0.0538	0.0521	0.0497	0.0469	–	923	942	966	1000
313.15 K	–	0.0775	–	–	0.0685	617	624	633	650	670
318.15 K	0.112	0.109	0.106	–	–	428	–	–	447	462
323.15 K	0.154	–	–	0.14	0.135	300	306	312	322	–
328.15 K	0.204	–	0.194	0.187	0.182	229	231	234	–	245
333.15 K	0.268	0.261	0.256	–	0.241	–	172.3	174.6	178.4	183
338.15 K	0.342	0.333	0.327	–	–	130.5	131.1	132.4	–	137.2
